From US4320141A, “Antitumor agent” (priority 1977, dated 1982)
Read-outs that look alike come from different tables or passages of the source.

Assays:
[1] = Acute toxicity in mice (LD50); assay type: in vivo; conditions: for LD50: mouse, in vivo
From the text: Acute toxicity in mice of α-tocopherol vitamin A acid ester which is the active ingredient of the antitumor agent of this invention is particularly low as shown below, even when any route of administration such as oral route, intraperitoneal route or intravenous injection is applied.

[2] = system: experimental tumor developed on epithelial cells; conditions: prophylaxis or therapy of experimental tumor; cited from earlier work
[3] = in vivo; cited from earlier work
[4] = system: tumor; test: Prophylactic effect on development of tumor (DMBA-initiated, croton oil-promoted, coated on depilated back); assay type: in vivo, ICR mice; conditions: groups of 10 mice, 4 months
From the text: To groups of 10 ICR mice, was applied 0.2% acetone solution of a cancerigenic agent, dimethylbenzanthracene (abbreviated hereinafter as DMBA) by coating said solution on the depilated back of the mice once a day for two weeks. From one week after the final administration of DMBA, an acetone solution of. 0.06% croton oil and a lotion containing an acetone solution of 0.06% croton oil and the active ingredient according to the present invention were coated successively on the back once a day for 4 months.
The lotion used above was prepared according to the following process:
A desired amount of α-tocopherol vitamin A acid ester was dissolved in 10 g of ethyl alcohol together with 0.5 g of […] sorbitan monolaurate and 6 g of glycerin and purified water were added thereto to make up the total 100 g. The solution thus obtained was stirred thoroughly to give lotion.

[5] = system: tumor; test: Therapeutic effect on tumor (DMBA-induced, hairless mice); assay type: in vivo; conditions: three weeks, counted on each animal
Method: On the back of hairless mice was coated 0.2% DMBA dissolved in olive oil with a brush three times a week for 2 months. After confirmation of development of tumor, test zone comprising groups of five mice was arranged indiscriminately. To these animals was administered α-tocopherol vitamin A acid ester either topically or orally and change of tumor was observed.
the back of animal twice a day with brush.

[6] = intravenous, read-out: LD50, intravenous injection
[7] = ip, intraperitoneal, read-out: LD50, intraperitoneal administration
[8] = oral, read-out: LD50, oral administration
[9] = 0.3% lotion, percutaneous, without croton oil
[10] = croton oil + 0.02% lotion, percutaneous, croton oil alone 10
[11] = croton oil + 0.3% lotion, percutaneous, croton oil alone 10
[12] = 0.01% lotion, topical twice a day, control 5
[13] = 0.01% lotion, topical twice a day, control 8
[14] = 0.01% lotion, topical twice a day, control 17
[15] = 0.05% lotion, topical twice a day, control 5
[16] = 0.05% lotion, topical twice a day, control 8
[17] = 0.05% lotion, topical twice a day, control 17

| Structure (SMILES) | LD50 [1, 6] [mg/kg] | LD50 [1, 7] [mg/kg] | LD50 [1, 8] [mg/kg] | Number of animals in which tumor was developed [4, 9] | Number of animals in which tumor was developed [4, 10] | Number of animals in which tumor was developed [4, 11] | Average number of tumor, smaller than 2mm [5, 12] | Average number of tumor, 5-2mm [5, 13] | Average number of tumor, larger than 5mm [5, 14] | Average number of tumor, smaller than 2mm [5, 15] | Average number of tumor, 5-2mm [5, 16] | Average number of tumor, larger than 5mm [5, 17] | other results |
| --- | --- | --- | --- | --- | --- | --- | --- | --- | --- | --- | --- | --- | --- |
| CC1=C(/C=C/C(C)=C/C=C/C(C)=C/C(=O)O)C(C)(C)CCC1 [Vitamin A acid, vitamin A acid, reference compound] | – | – | – | – | – | – | – | – | – | – | – | – | LD50, intraperitoneal administration ([1]; intraperitoneal): 150 mg/kg; LD50, intravenous injection ([1]; intravenous): 92 mg/kg; LD50, oral administration ([1]; oral): 780 mg/kg; Antitumor activity (in words) [2]: effective for prophylaxis of development or therapy of experimental tumor developed on epithelial cells; Toxicity (in words) [3]: quite strongly toxic |
| CC1=C(/C=C/C(C)=C/C=C/C(C)=C\C(=O)Oc2c(C)c(C)c3c(c2C)CCC(C)(CCCC(C)CCCC(C)CCCC(C)C)O3)C(C)(C)CCC1 (stereo not drawn) [α-tocopherol-13-cis-vitamin A acid ester] | > 1000 | > 10000 | > 10000 | 0 | 4 | 2 | 8 | 3 | 4 | 4 | 6 | 2 | – |
| CC1=C(/C=C/C(C)=C/C=C/C(C)=C/C(=O)Oc2c(C)c(C)c3c(c2C)CCC(C)(CCCC(C)CCCC(C)CCCC(C)C)O3)C(C)(C)CCC1 (stereo not drawn) [α-tocopherol-trans-vitamin A acid ester] | > 1000 | > 10000 | > 10000 | 0 | 5 | 2 | 8 | 5 | 7 | 13 | 6 | 1 | Number of animals in which tumor was developed ([4]; croton oil + 200mg/day, oral, croton oil alone 10): 3; Average number of tumor, smaller than 2mm ([5]; 200mg/kg, oral, control (topical) 5): 10; Average number of tumor, 5-2mm ([5]; 200mg/kg, oral, control (topical) 8): 6; Average number of tumor, larger than 5mm ([5]; 200mg/kg, oral, control (topical) 17): 4; Average number of tumor, smaller than 2mm ([5]; 500mg/kg, oral, control (topical) 5): 6; Average number of tumor, 5-2mm ([5]; 500mg/kg, oral, control (topical) 8): 5; Average number of tumor, larger than 5mm ([5]; 500mg/kg, oral, control (topical) 17): 2 |
